Columns and labels:
[1] = system: Rabbit Psoas myofibrils (skeletal myosin ATPase); test: Myofibril ATPase assay, rabbit psoas (skeletal) myofibrils; type: biochemical
Outline: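 Values are concentrations giving 75% (Y75) or 125% (Y125) of vehicle ATPase activity, from 4-parameter logistic fits of normalized rates. Rates came from linear regression of A340 over 75 min, NADH oxidation coupled to ADP via PK-LDH. Enzyme source: skeletal myofibrils from rabbit psoas, pH 7.0 pCa buffer.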

[2] = system: Porcine atria myofibrils (atrial myosin ATPase); test: Myofibril ATPase assay, porcine atria myofibrils; type: biochemical
Outline: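 Y75 (25% inhibition) or Y125 (activation) values come from 4-parameter logistic fits of vehicle-normalized rates. Rates are linear-regression slopes of NADH absorbance at 340 nm, read kinetically over 75 min, with ADP coupled to NADH oxidation via pyruvate kinase/lactate dehydrogenase.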

[3] = biological target: T1, Porcine ventricle myofibrils (ventricular myosin ATPase) (Sus scrofa, UniProt P79293); test: Myofibril ATPase assay, porcine ventricle myofibrils; type: biochemical, porcine (Yucatan minipigs)
T1 construct: Myofibrils from porcine cardiac muscle was isolated from the left ventricle of Yucatan minipigs; tissue Exemplar Genetics; host or cells: left ventricle of Yucatan minipigs, myofibrils prepared in house
T1 sequence (P79293 whole entry): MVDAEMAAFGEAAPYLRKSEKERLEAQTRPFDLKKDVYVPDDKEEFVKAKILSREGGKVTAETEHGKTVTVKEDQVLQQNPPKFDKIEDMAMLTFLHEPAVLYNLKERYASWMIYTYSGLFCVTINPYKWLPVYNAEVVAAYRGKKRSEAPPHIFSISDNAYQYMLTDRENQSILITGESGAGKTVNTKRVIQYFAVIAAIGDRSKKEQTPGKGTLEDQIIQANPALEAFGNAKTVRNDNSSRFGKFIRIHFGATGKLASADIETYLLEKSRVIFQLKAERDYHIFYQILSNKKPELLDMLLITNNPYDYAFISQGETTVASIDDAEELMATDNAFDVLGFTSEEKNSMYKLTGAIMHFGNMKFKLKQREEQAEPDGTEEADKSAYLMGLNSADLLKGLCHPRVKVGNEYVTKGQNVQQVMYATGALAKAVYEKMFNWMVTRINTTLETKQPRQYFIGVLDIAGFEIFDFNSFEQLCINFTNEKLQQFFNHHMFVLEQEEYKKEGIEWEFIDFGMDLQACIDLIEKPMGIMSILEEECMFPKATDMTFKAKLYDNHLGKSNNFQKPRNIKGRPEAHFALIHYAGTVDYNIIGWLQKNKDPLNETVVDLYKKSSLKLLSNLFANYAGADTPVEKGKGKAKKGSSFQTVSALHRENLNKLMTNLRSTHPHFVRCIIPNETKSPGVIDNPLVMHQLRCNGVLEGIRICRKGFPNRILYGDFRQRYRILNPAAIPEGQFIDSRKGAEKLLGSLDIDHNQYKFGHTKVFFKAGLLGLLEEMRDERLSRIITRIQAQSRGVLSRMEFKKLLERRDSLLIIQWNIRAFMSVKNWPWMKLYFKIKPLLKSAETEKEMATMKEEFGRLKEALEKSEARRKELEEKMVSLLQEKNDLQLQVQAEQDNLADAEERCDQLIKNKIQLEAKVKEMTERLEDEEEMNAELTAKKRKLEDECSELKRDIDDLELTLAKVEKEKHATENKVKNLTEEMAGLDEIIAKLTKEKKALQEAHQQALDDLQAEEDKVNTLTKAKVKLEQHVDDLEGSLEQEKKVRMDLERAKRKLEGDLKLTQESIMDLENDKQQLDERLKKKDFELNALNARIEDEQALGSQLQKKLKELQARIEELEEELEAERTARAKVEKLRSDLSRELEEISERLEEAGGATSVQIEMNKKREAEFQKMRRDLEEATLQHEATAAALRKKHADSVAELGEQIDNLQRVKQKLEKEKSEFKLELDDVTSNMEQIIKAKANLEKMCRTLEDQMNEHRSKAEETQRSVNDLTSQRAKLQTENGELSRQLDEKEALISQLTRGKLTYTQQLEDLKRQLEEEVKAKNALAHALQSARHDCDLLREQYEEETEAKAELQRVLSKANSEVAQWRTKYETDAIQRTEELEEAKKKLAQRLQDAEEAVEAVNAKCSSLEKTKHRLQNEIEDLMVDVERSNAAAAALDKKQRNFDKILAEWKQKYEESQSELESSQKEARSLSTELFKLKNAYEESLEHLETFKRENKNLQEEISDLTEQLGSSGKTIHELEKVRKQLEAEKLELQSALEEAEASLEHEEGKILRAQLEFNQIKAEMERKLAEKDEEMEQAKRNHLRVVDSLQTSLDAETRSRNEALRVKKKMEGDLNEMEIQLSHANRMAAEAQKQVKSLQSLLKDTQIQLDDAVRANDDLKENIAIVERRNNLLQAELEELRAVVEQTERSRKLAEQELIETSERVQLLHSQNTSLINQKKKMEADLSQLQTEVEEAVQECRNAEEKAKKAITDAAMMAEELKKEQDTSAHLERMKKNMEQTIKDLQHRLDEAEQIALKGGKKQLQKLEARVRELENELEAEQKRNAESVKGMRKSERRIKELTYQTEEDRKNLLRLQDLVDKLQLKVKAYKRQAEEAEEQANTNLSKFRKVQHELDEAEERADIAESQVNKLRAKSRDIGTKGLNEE
Outline: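 Read-out: A340 kinetic, NADH consumption coupled to ADP via PK-LDH, 75 min. Yucatan minipig LV myofibrils, pCa buffer (PIPES/CaCl2/EGTA, pH 7.0). Linear-regression slope (mAU/min), vehicle = 100%, 4PL fit; Y75 or Y125 reported.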

[4] = Y75 value (no ‡ mark), rabbit psoas myofibrils
[5] = Y75 value (no ‡ mark), porcine atria myofibrils
[6] = Y75 value (no ‡ mark), porcine ventricle myofibrils
[7] = ‡ Y125 value, not a Y75 value (125% activity relative to no compound), rabbit psoas myofibrils
[8] = rabbit psoas myofibrils, Y75 value
[9] = porcine atria myofibrils, Y75 value (75% activity relative to no compound)
[10] = porcine ventricle myofibrils, Y75 value
[11] = Y75 value: concentration required to reduce myosin ATP-ase activity by 25%, Rabbit Psoas Prep pCa 25 GEOM_MEAN
[12] = Y75 value: concentration required to reduce myosin ATP-ase activity by 25%, Porcine Atria Prep pCa 25 GEOM_MEAN
[13] = Y75 value: concentration required to reduce myosin ATP-ase activity by 25%, Porcine Ventricle Prep pCa 25 GEOM_MEAN
[14] = ‡ Y125 value, not a Y75 value (125% activity relative to no compound), porcine ventricle myofibrils

| Structure (SMILES) | Skeletal EC25 [1, 4] [µM] | Atrial EC25 [2, 5] [µM] | Ventricular EC25 [3, 6] [µM] | further results |
| --- | --- | --- | --- | --- |
| Cc1c(C(F)(F)C(=O)N[C@@H](C)c2cnc(C#N)cn2)c(=O)[nH]c2ccc(F)cc12 (single isomer, unassigned) [compound 4828] | 0.24 | 0.30 | 1.13 | – |
| Cc1c(C(F)(F)C(=O)N[C@H](C)c2nccc(C#N)n2)c(=O)[nH]c2ccc(F)cc12 (single isomer, unassigned) [compound 2527] | – | 4.73 | 100.00 | Skeletal EC25 [1, 7]: 100.00‡ μM |
| Cc1c(C(F)(F)C(=O)N[C@H](C)c2ncc(C#N)cc2F)c(=O)[nH]c2ccc(F)c(C#N)c12 (single isomer, unassigned) [compound 4835] | 0.11 | 0.18 | 0.77 | – |
| Cc1c(CC(=O)N[C@H](C)c2ncc(C#N)cc2F)c(=O)[nH]c2ccc(F)c(C#N)c12 [compound 31] | 0.06 | 0.10 | 0.16 | – |
| Cc1c(CC(=O)N[C@@H]2c3c(F)cc(F)cc3OC2(C)C)c(=O)[nH]c2ccnc(C#N)c12 (single isomer, unassigned) [compound 188] | – | – | – | Skeletal EC25 [1, 8]: 26.50 µM; Atrial EC25 [2, 9]: 2.43 µM; Ventricular EC25 [3, 10]: 39.56 µM |
| C[C@H](NC(=O)Cc1cc2c(C(F)(F)F)nccc2[nH]c1=O)c1ccc(F)cc1F [compound 435] | – | – | – | Skeletal EC25 [1, 8]: 0.38 µM; Atrial EC25 [2, 9]: 32.52 µM; Ventricular EC25 [3, 10]: 19.10 µM |
| Cc1cc(C#N)ncc1[C@H](C)NC(=O)Cc1c(C)c2c(C)c(F)ccc2[nH]c1=O [compound 1045] | 0.44 | 1.5 | 1.7 | – |
| CC(NC(=O)Cc1cc2cc(F)ccc2[nH]c1=O)c1cc(C#N)c(F)s1 (stereo not drawn) [compound 4002] | – | – | – | Skeletal EC25 [1, 11]: 4.10 µM; Atrial EC25 [2, 12]: 1.60 µM; Ventricular EC25 [3, 13]: 100.00 µM |
| Cc1c(CC(=O)N[C@H](C)c2ncc(C#N)cn2)c(=O)[nH]c2ccc(C#N)cc12 (single isomer, unassigned) [compound 2027] | 41.80 | 1.48 | 100.00 | – |
| Cc1c(C(F)(F)C(=O)NC(C)c2cccc(C#N)n2)c(=O)[nH]c2ccc(F)c(F)c12 (single isomer, unassigned) [Compound 2588] | – | 100.00 | – | Skeletal EC25 [1, 7]: 19.03‡ μM; Ventricular EC25 [3, 14]: 67.27‡ μM |
| CC(C(=O)N[C@@H](C)c1ccc(F)cc1F)c1cc2ccccc2[nH]c1=O (stereo partly drawn) [compound 134] | 7.99 | 100.00 | 100.00 | – |
| C[C@H](C(=O)N[C@H](C)c1ncc(C#N)cc1F)c1cc2c(F)c(F)ccc2[nH]c1=O (single isomer, unassigned) [compound 2599] | – | 2.16 | 16.66 | Skeletal EC25 [1, 7]: 100.00‡ μM |
| Cc1c(C(F)(F)C(=O)N[C@@H](C)c2nc(C#N)cs2)c(=O)[nH]c2ccc(F)cc12 (single isomer, unassigned) [Compound 4010] | – | – | – | Skeletal EC25 [1, 11]: 2.38 µM; Atrial EC25 [2, 12]: 0.74 µM; Ventricular EC25 [3, 13]: 19.76 µM |
| Cc1c(F)ccc2[nH]c(=O)c(C(F)(F)C(=O)N[C@@H](C)c3ncc(C#N)cc3F)c(C#N)c12 (single isomer, unassigned) [compound 2520] | 0.07 | 0.14 | 0.21 | – |
| C[C@H](NC(=O)C(F)(F)c1cc2c(F)c(F)ccc2[nH]c1=O)c1cccc(C#N)n1 (single isomer, unassigned) [compound 2572] | 100.00 | 100.00 | – | Ventricular EC25 [3, 14]: 100.00‡ μM |
| Cc1c(C(F)(F)C(=O)N[C@H]2CCc3cc(C#N)cnc32)c(=O)[nH]c2ccc(F)cc12 (single isomer, unassigned) [compound 2516] | 0.67 | 0.79 | 100.00 | – |
| C[C@H](NC(=O)[C@H](C)c1c(C(F)(F)F)c2cnccc2[nH]c1=O)c1ccc(F)cc1F (single isomer, unassigned) [compound 427] | – | – | – | Skeletal EC25 [1, 8]: 2.02 µM; Atrial EC25 [2, 9]: 2.53 µM; Ventricular EC25 [3, 10]: 22.60 µM |
| N#Cc1cnc2c(c1)CC[C@@H]2NC(=O)Cc1cc2c(F)c(F)ccc2[nH]c1=O (single isomer, unassigned) [compound 8] | 100.00 | 100.00 | 100.00 | – |
| C[C@H](NC(=O)[C@H](C)c1c(C(F)(F)F)c2c(F)cccc2[nH]c1=O)c1ccc(F)cc1F (single isomer, unassigned) [compound 98] | 0.06 | 0.53 | 4.12 | – |
| Cc1cc(C#N)nnc1[C@H](C)NC(=O)Cc1c(C)c2c(C)nccc2[nH]c1=O [compound 490] | – | – | – | Skeletal EC25 [1, 8]: 45.80 µM; Atrial EC25 [2, 9]: 100.00 µM; Ventricular EC25 [3, 10]: 100.00 µM |
| Cc1nccc2[nH]c(=O)c([C@@H](C)C(=O)N[C@H](C)c3ccc(C#N)cc3F)c(C)c12 (single isomer, unassigned) [compound 183] | – | – | – | Skeletal EC25 [1, 8]: 0.75 µM; Atrial EC25 [2, 9]: 0.33 µM; Ventricular EC25 [3, 10]: 6.37 µM |
| Cc1c(C(F)(F)C(=O)N[C@@H](C)c2ncc(C#N)cn2)c(=O)[nH]c2ccc(F)c(C#N)c12 (single isomer, unassigned) [compound 2522] | 0.14 | 0.32 | 0.72 | – |
| Cc1c(CC(=O)N[C@H](C)c2ncc(F)cc2F)c(=O)[nH]c2ccnc(C(F)(F)F)c12 (single isomer, unassigned) [compound 265] | – | – | – | Skeletal EC25 [1, 8]: 3.86 µM; Atrial EC25 [2, 9]: 100.00 µM; Ventricular EC25 [3, 10]: 100.00 µM |
| Cc1c(F)ccc2[nH]c(=O)c(C(F)(F)C(=O)N[C@H](C)c3ncc(C#N)cn3)c(C)c12 (single isomer, unassigned) [compound 4831] | 0.06 | 0.12 | 0.39 | – |
| Cc1c(C2(C(=O)N[C@H](C)c3cc(C#N)ccn3)CC2)c(=O)[nH]c2ccc(F)c(F)c12 (single isomer, unassigned) [compound 2539] | 100.00 | 2.76 | 100.00 | – |
| Cc1c(CC(=O)N[C@@H](C)c2ccc(C#N)nn2)c(=O)[nH]c2cc(F)c(F)cc12 [compound 1043] | 0.41 | 1.28 | 3.5 | – |
| Cc1c(C(C)C(=O)N[C@@H](C)c2ccc(F)cc2F)c(=O)[nH]c2ccc(F)cc12 (stereo partly drawn) [compound 127] | 0.17 | 0.19 | 3.12 | – |
| C[C@H](NC(=O)Cc1cc2cc(F)c(F)cc2[nH]c1=O)c1ncc(C#N)cc1F (single isomer, unassigned) [compound 4] | 0.15 | 4.38 | 0.96 | – |
| Cc1c(CC(=O)N[C@@H](C)c2ccc(C#N)cn2)c(=O)[nH]c2ccncc12 [compound 467] | – | – | – | Skeletal EC25 [1, 8]: 16.00 µM; Atrial EC25 [2, 9]: 100.00 µM; Ventricular EC25 [3, 10]: 100.00 µM |
| Cc1c(CC(=O)N[C@@H]2CCc3cc(C#N)cnc32)c(=O)[nH]c2ccc(F)cc12 [compound 1092] | 0.36 | 1.13 | 2.41 | – |
